Where a SMILES comes first, the peptide text is derived from it. [ ]: non-standard residue; d: D form. The star is where a group is joined. Dansyl = CN(C)c1cccc2c(S(=O)(=O)*)cccc12
Molecular target: peptidylglycine-α-amidizing monooxygenase (PAM) (Bos taurus, UniProt P10731)
Conditions: after 3 hours
Protocol: The tests with the substrate, according to the invention, of the formula I (R=Gly--OH) and with the comparison substance of the formula I (R=NH2) were carried out both with the crude fractions and also with the enriched fractions.
Procedure for enzyme assay using the substrate of the formula I (R=Gly--OH) and the reference substance of the formula II (R=NH2)
The enzyme tests are carried out in a buffer of pH 7.4. The aqueous buffer is composed of the buffer substance N-[tris-(hydroxymethyl)-methyl]-2-amino-ethanesulfonic acid (100 mM), CuSO4 (3 μM), peptide substrate of the formula I (R=Gly--OH) (50 μM) and catalase from bovine liver (100 μg/ml). 100 μl of this buffer solution are incubated with 100 μl of the solution containing PAM, and, after 3 hours at 37° C., the reaction is stopped by adding 700 μl of CH2 Cl2. […] After the mixture has been centrifuged and the organic phase removed, the latter is evaporated in a vacuum centrifuge and the residue is again taken up in a constant volume of CH2 Cl2. All operations are carried out with exclusion of light in order to prevent photo-reactions of the light-sensitive substrate. […] Quantification of the resulting amide of the formula I (R=NH2) by means of a thin layer scanner is made possible by simultaneously applying the peptide amide of the formula II in various concentrations as a reference.

Sequence of peptidylglycine-α-amidizing monooxygenase (PAM) (P10731 31-972): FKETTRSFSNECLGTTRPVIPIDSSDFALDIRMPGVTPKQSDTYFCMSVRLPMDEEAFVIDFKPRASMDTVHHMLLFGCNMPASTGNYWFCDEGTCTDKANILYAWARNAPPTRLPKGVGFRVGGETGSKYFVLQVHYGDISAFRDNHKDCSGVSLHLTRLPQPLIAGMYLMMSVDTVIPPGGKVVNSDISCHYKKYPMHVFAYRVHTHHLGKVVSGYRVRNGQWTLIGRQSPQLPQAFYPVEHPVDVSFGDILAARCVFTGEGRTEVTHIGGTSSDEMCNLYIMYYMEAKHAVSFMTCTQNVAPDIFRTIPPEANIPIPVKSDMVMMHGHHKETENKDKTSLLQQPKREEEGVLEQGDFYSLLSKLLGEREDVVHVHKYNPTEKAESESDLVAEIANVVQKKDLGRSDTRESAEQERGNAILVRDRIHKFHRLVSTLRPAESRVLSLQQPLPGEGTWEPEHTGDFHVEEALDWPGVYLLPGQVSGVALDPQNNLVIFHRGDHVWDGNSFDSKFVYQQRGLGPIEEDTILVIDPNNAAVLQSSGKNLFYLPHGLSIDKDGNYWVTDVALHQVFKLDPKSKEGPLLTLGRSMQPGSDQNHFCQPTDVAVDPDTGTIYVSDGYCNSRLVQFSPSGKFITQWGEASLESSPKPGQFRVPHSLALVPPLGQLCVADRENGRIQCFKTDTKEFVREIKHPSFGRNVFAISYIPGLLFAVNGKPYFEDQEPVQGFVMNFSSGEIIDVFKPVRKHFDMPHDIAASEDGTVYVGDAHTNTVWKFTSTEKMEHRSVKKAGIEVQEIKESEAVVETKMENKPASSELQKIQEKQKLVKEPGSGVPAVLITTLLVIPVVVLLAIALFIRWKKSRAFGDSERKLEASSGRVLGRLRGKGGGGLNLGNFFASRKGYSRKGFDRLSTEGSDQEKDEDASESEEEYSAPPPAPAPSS

C[C@@H](NS(=O)(=O)c1cccc2c(N(C)C)cccc12)C(=O)N1CCC[C@H]1C(=O)NCC(=O)O [DIS-D-Ala--Pro--Gly--OH, DIS--D--Ala--Pro--Gly--OH] (Dansyl-[dA]-Pro-Gly-OH)
Share of the substrate reacted: approx. 5%
